Like-named read-outs stand apart in the source and are kept apart here.

We go through two compounds from patent US11066412B2, “Substituted pyrrolo[2,1-a]phthalazines and benzo[g]pyrrolo[2,1-a]phthalazines for the treatment of cancer” (Academia Sinica, priority 2017, dated 2021).

One data set concerns γ-H2AX. As to the kind of experiment: immunohistochemical staining of tumor xenograft sections, DNA damage marker. Format: in vivo, nude mice. The following applies: for γ-H2AX in tumors: FIG. 16, panel A; for γ-H2AX signals, quantitative analysis: FIG. 16, panel B. The method, then:
Tumor xenograft tissue sections on the slides were deparaffinized in xylene twice for 7 min each time. The slides were then rehydrated in graded ethanol, serially from 100% to 70%, followed by rinsing in dH2O. Antigen retrieval was performed using citrate buffer (0.01M, pH 6.0) with incubation in a cooker for 50 mins followed by ambient temperature cooling for 30 min. and then dH2O rinsing. Later slides were subjected to immunohistochemical (IHC) staining with primary antibodies (anti-rabbit CD31 antibody and anti-mouse γ-H2AX antibody) obtained from Abeam® following the manufacturer's instructions (Novolink Polymer Detection system, Leica Biosystems, Wetzlar, Germany).^11 After IHC processing, the slides were scanned digitally using the Panoramic 250 Flash II whole slide scanner and analyzed by 3[…] Panoramic viewer software (3[…] Ltd., Budapest, Hungary).
As BO-2590L is a DNA damaging agent, we thus investigated the effect of BO-2590L on the level of a DNA damage marker, γ-H2AX, via the use of immunohistochemical staining.

The subject of a further data set is H526 cells. The data set can be described thus: single cell electrophoresis (comet) assay. Format: cell-based. The following applies: FIG. 2. An excerpt:
The data is the average of 3 independent experiments.
To this purpose, cells were encapsulating in a low-melting-point agarose suspension on a microscope slide, then were lysed in neutral or alkaline (pH>13) condition, and electrophoresis of the suspended lysed cells. The term “comet” refers to the pattern of DNA migration through the electrophoresis gel, which often resembles a comet, and the intensity of the comet tail relative to the head reflects the number of DNA breaks.

The nature of data set [1]: body weight changes of xenograft-bearing nude mice. Format: in vivo. The following applies: H526 xenograft mice. The method, then: Athymic nude mice bearing the nu/nu gene were obtained from the National Laboratory Animal Center (Taipei, Taiwan). Male nude mice (6 weeks or older weighing 20-24 g or more) were used for all human tumor xenografts. The tested compounds were intravenously administered through tail vein. Tumor volume was determined by measuring the length x width x height (or width) with calipers. The vehicle used for the tested compounds was normal saline (0.9% NaCl isotonic solution). For tumor-bearing nude mice during the course of the experiment, the % body weight changes refer to: (the total weight on reading day/the total weight on day treatment started)×100.

Another data set concerns H1417. The data set can be described thus: in vitro cytotoxicity to SCLC cells. The settings on record: Table 3. The data set is classed as cell-based, human. The method, then: (§1) After a 72-hr incubation in various concentrations of the newly synthesized compounds, the cytotoxic effects of them to all cell lines were determined by the PrestoBlue®(Invitrogen) assay using a microplate spectrophotometer. Briefly, at the end of treatment, an aliquot of PrestoBlue® solution was added and then cells were incubated at 37° C. for 1-2 hr. The absorbance at 570 and 600 nm was measured with a microplate reader. […] The ICso is defined by the concentration required to inhibit tumor cell growth by 50%. Data represent the mean±STDEV of three to six independent experiments for each compound.

In the next data set the test system is H82. As to the kind of experiment: in vitro cytotoxicity to SCLC cells. The following applies: Table 3. The data set is classed as cell-based, human. The method, then: as §1
In a further data set the test system is H146. As to the kind of experiment: in vitro cytotoxicity to SCLC cells. The data set is classed as cell-based, human. The following applies: Table 3. As for the experimental part: as §1
The test system of the next data set is H211. As to the kind of experiment: in vitro cytotoxicity to SCLC cells. Format: cell-based, human. The settings on record: Table 3. The method, then:
as §1

For the next data set, the system named is pancreatic cancer PacaS1. The data set can be described thus: in vitro cytotoxicity, PrestoBlue assay. Format: cell-based, human. The settings on record: Table 2. The method, then: (§2) All representative compounds of Formulae (I-A) and (I-B) were first evaluated for their in vitro cytotoxicity to human lymphoblastic leukemia cell line (CCRF-CEM) and its vinblastine-resistant sub-cell line (CCRF-CEM/VBL) (see Table 1).
as §1

The subject of data set [2] is vinblastine-resistant sub-cell line (CCRF-CEM/VBL). As to the kind of experiment: in vitro cytotoxicity, PrestoBlue assay. Format: cell-based, human. As for the experimental part: as §2, §1
For data set [3], the system named is non-small cell lung cancer H460. As to the kind of experiment: in vitro cytotoxicity, PrestoBlue assay. Format: cell-based, human. The following applies: Table 2. The method, then:
as §2, §1

A further data set deals with colon cancer HCT-116. As to the kind of experiment: in vitro cytotoxicity, PrestoBlue assay. The data set is classed as cell-based, human. The following applies: Table 2. The method, then:
as §2, §1

Data set [4] relates to human SCLC H526 xenografts. As to the kind of experiment: tumor growth in xenograft-bearing nude mice. The data set is classed as in vivo. The settings on record: micelle formulation (Kolliphor/TWEEN 80/PEG400/ethanol/D5W); BO-2768 at 20 mg/kg twice daily; FIG. 12, panel A. As for the experimental part: Athymic nude mice bearing the nu/nu gene were obtained from the National Laboratory Animal Center (Taipei, Taiwan). Male nude mice (6 weeks or older weighing 20-24 g or more) were used for all human tumor xenografts. The tested compounds were intravenously administered through tail vein. Tumor volume was determined by measuring the length x width x height (or width) with calipers. […] For tumor-bearing nude mice during the course of the experiment, the % body weight changes refer to: (the total weight on reading day/the total weight on day treatment started)×100.
In all experiments, the tumor cells were subcutaneously implanted in nude mice, and the BO-2590L was administered via tail vein when the tumor size reaching approximate 100 mm^3. […]
To confirm the therapeutic activity of BO-2590L, comparative experiments carried out by known chemotherapeutic agents, such as vatanalib and cisplatin, were also performed. Briefly, the H526 xenograft-bearing mice were divided into 4 groups which were treated with vehicle, BO-2590L (10 mg/kg, QD×9), vatalanib (100 mg/kg, QD×9), and cisplatin (4 mg/kg, Q2D×3), respectively. Results are illustrated in FIG. 11.
Results are illustrated in FIGS. 12 and 13.

For data set [5], the system named is small cell lung cancer H526. The data set can be described thus: in vitro cytotoxicity, PrestoBlue assay. Format: cell-based, human. The settings on record: read-out: IC50 H526.
In data set [6] the test system is human lymphoblastic leukemia cell line (CCRF-CEM). The data set can be described thus: in vitro cytotoxicity, PrestoBlue assay. The following applies: 72-hr incubation; mean ± STDEV of three to six experiments; read-out: IC50 CCRF-CEM. The data set is classed as cell-based. As for the experimental part:
as §2, §1

The subject of a further data set is CD31. The data set can be described thus: immunohistochemical staining of tumor xenograft sections, blood vessels. The settings on record: for blood vessel in tumors (anti-CD31 staining): compared to vehicle control, FIG. 15, panel A; for CD31 marker intensity compared to control: day 9, H526 tumors, FIG. 15, panel B. Format: in vivo, nude mice. As for the experimental part:
Tumor xenograft tissue sections on the slides were deparaffinized in xylene twice for 7 min each time. The slides were then rehydrated in graded ethanol, serially from 100% to 70%, followed by rinsing in dH2O. Antigen retrieval was performed using citrate buffer (0.01M, pH 6.0) with incubation in a cooker for 50 mins followed by ambient temperature cooling for 30 min. and then dH2O rinsing. Later slides were subjected to immunohistochemical (IHC) staining with primary antibodies (anti-rabbit CD31 antibody and anti-mouse γ-H2AX antibody) obtained from Abeam® following the manufacturer's instructions (Novolink Polymer Detection system, Leica Biosystems, Wetzlar, Germany).^11 After IHC processing, the slides were scanned digitally using the Panoramic 250 Flash II whole slide scanner and analyzed by 3DHISTECH Panoramic viewer software (3DHISTECH Ltd., Budapest, Hungary).
The density of blood vessels within the tumors was evaluated by immunofluorescence staining using anti-CD31 (a marker of endothelial cells) (FIG. 15, panel A). […] After IHC, slides were scanned by Panoramic 250 Flash II whole slide scanner. The expression of CD31 in tissue sections were determined from 15 different fields of 3 tumor sections and counts were averaged using 3DHISTECH Panoramic viewer software (3DHISTECH Ltd., Budapest, Hungary). […] However, on day 9, CD31 marker intensity was reduced to 4% in tumors treated with BO-2590L or vatalanib compared to control (FIG. 15, panel B). […] On day 9, CD31 marker intensity in cisplatin-treated tumor was 19% of control, which was less extent than BO-2590L or vatalanib.

For another data set, the system named is EA.hy926 cells. The data set can be described thus: Tube-Formation Assay. The settings on record: 24 hr pre-treatment, 48-hr incubation on matrigel; FIG. 4. Format: cell-based. The method, then:
Angiogenesis is the process of generating new blood vessels derived as extensions from the existing vasculature. Performance of vascular behavior or monitoring tube formation can determine whether the compound is capable of interrupting angiogenesis. In this example, whether the compound of formula (I) interrupted angiogenesis was investigated using Tube-Formation Assay.
Briefly, EA.hy926 cells were treated with various concentrations of BO-2590 for 24 hr. After that, cells (5×10^5 cells/well) were suspended in 100 μl medium containing 1% FCS and subsequently seeded onto 96-well plate pre-coated with matrigel 1 h at 37° C. After a 48-hr incubation, tube-formation ability was examined under a phase microscope.

Consider `N.N.[Cl][Pt][Cl]` [Cisplatin, reference compound], for which the γ-H2AX in tumors entry in the data set with γ-H2AX is on record as “remarkably increased in γ-H2AX”. The “γ-H2AX signals, quantitative analysis” value in the data set with γ-H2AX was “time-dependently increased in γ-H2AX signals”. For the same compound, the “DNA damage (comet tail)” value in the data set on H526 cells is given as “inducing DNA breaks in a dose dependent manner”. For the same compound, the “deleterious effects on the bodyweight of the test animals” value in data set [1] (micelle formulation, FIG. 12, panel B) is on record as “none”. Further, the body weight entry in [1] (BO-2590L 10 mg/kg for consecutive 9 days, cisplatin 4 mg/Kg, FIG. 11, panel B) was “severe body weight lost”. Moreover, the IC50 in the data set with H1417 was 40.8 ± 5.97 µM; with H82 it was 1.75 ± 0.39 µM; in the data set on H146, 10.2 ± 2.99 µM; with H211, 0.78 ± 0.46 µM; in data set [2] (72-hr incubation, mean ± STDEV of three to six experiments, read-out: IC50 CEM/VBL), 8.88 ± 1.86 µM; in [3], 5.11 ± 0.22 µM. For the same compound, the IC50 with colon cancer HCT-116 is 9.17 ± 0.67 µM; in data set [5] (Table 2), 0.73 ± 0.07 µM; in data set [5] (Table 3) it was 1.75 ± 0.71 µM; in data set [6] it was 16.5 ± 0.9 µM. Besides, the “IC50 Paca SI” value in the data set with pancreatic cancer PacaS1 was 27.04 ± 0.98 µM. The “resistance factor (IC50 CEM/VBL vs IC50 of the parent cell line)” value in data set [2] (number in brackets) came to 0.54 ×. In addition, in data set [4], the tumor size result is recorded as “slowly increased in size”. Besides, the “blood vessel in tumors (anti-CD31 staining)” value in the data set on CD31 is given as “significantly reduced blood vessel”. In addition, in the data set on CD31, the “CD31 marker intensity compared to control” value is reported as 19%.

As to `Clc1ccc(Nc2nnc(Cc3ccncc3)c3ccccc23)cc1` [vatalanib], the tube formation entry in the data set with EA.hy926 cells is “suppressed tube formation, but at much higher concentrations”. In the data set on γ-H2AX, the γ-H2AX in tumors entry is reported as “much less level” and the “γ-H2AX signals, quantitative analysis” value was “moderate level of γ-H2AX”. For the same compound, in the data set on CD31, the “blood vessel in tumors (anti-CD31 staining)” value is recorded as “significantly reduced blood vessel” and the “CD31 marker intensity compared to control” value amounted to 4%.
